System: Streptococcus pyogenes
Test: Antibacterial activity against Streptococcus pyogenes clinical isolate by agar dilution method

SMILES: O=C(O)c1cn(C2CC2)c2cc(N3CCNCC3)c(F)cc2c1=O [CIPROFLOXACIN]
- MIC: ≥ 2 µg/mL

— ChEMBL document CHEMBL1275548, “Interspecies recombination occurs frequently in quinolone resistance-determining regions of clinical isolates of Streptococcus pyogenes” (2008)
